PubChem BioAssay (NCI)
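At the GI50, growth is halved. TGI: total growth inhibition.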

What was measured:
Assay in all cases: NCI anticancer screen, dose series, 384-well format
SF-295 CNS = test system: SF-295 CNS
RPMI-8226 leukemia = test system: RPMI-8226 leukemia
NCI-H522 lung = test system: NCI-H522 lung
HL-60(TB) leukemia = test system: HL-60(TB) leukemia
IGROV1 ovarian = test system: IGROV1 ovarian
MDA-MB-435 melanoma = test system: MDA-MB-435 melanoma
OVCAR-8 ovarian = test system: OVCAR-8 ovarian
SNB-75 CNS = test system: SNB-75 CNS
KM12 colon = test system: KM12 colon
SNB-19 CNS = test system: SNB-19 CNS
M14 melanoma = test system: M14 melanoma
HCC-2998 colon = test system: HCC-2998 colon
SN12C renal = test system: SN12C renal
OVCAR-4 ovarian = test system: OVCAR-4 ovarian
CAKI-1 renal = test system: CAKI-1 renal
HOP-62 NSCLC = test system: HOP-62 NSCLC
SK-MEL-28 melanoma = test system: SK-MEL-28 melanoma
EKVX NSCLC = test system: EKVX NSCLC
A549 NSCLC = test system: A549 NSCLC
OVCAR-5 ovarian = test system: OVCAR-5 ovarian
NCI/ADR-RES ovarian = test system: NCI/ADR-RES ovarian
RXF 393 renal = test system: RXF 393 renal
SK-OV-3 ovarian = test system: SK-OV-3 ovarian
UACC-62 melanoma = test system: UACC-62 melanoma
HCT-116 colon = test system: HCT-116 colon
CCRF-CEM leukemia = test system: CCRF-CEM leukemia
U251 glioblastoma = test system: U251 glioblastoma
UO-31 renal = test system: UO-31 renal
786-0 renal = test system: 786-0 renal
UACC-257 melanoma = test system: UACC-257 melanoma
ACHN renal = test system: ACHN renal
SF-539 CNS = test system: SF-539 CNS
LOX IMVI melanoma = test system: LOX IMVI melanoma
SK-MEL-5 melanoma = test system: SK-MEL-5 melanoma
SR leukemia = test system: SR leukemia
NCI-H226 lung = test system: NCI-H226 lung
MCF7 breast = test system: MCF7 breast
A498 renal = test system: A498 renal
SF-268 CNS = test system: SF-268 CNS
MALME-3M melanoma = test system: MALME-3M melanoma
TK-10 renal = test system: TK-10 renal
NCI-H322M lung = test system: NCI-H322M lung
HCT-15 colon = test system: HCT-15 colon
MDA-MB-468 breast = test system: MDA-MB-468 breast
DU-145 prostate = test system: DU-145 prostate
NCI-H460 NSCLC = test system: NCI-H460 NSCLC
SW-620 colon = test system: SW-620 colon
OVCAR-3 ovarian = test system: OVCAR-3 ovarian
BT-549 breast = test system: BT-549 breast
PC-3 prostate = test system: PC-3 prostate
NCI-H23 lung = test system: NCI-H23 lung
T-47D breast = test system: T-47D breast
HS 578T breast = test system: HS 578T breast
HOP-92 NSCLC = test system: HOP-92 NSCLC
MDA-MB-231 breast = test system: MDA-MB-231 breast
MOLT-4 leukemia = test system: MOLT-4 leukemia
COLO 205 colon = test system: COLO 205 colon

Compound: COc1cc2ncnc(Nc3ccc(F)c(Cl)c3)c2cc1NC(=O)/C=C/CN1CCCCC1
- GI50 (SF-295 CNS): 4830 nM
- TGI (SF-295 CNS): 7340 nM
- GI50 (RPMI-8226 leukemia): 1510 nM
- TGI (RPMI-8226 leukemia): 2850 nM
- GI50 (NCI-H522 lung): < 45.2 nM
- TGI (NCI-H522 lung): 946 nM
- GI50 (HL-60(TB) leukemia): 973 nM
- TGI (HL-60(TB) leukemia): 2340 nM
- GI50 (IGROV1 ovarian): < 27.3 nM
- TGI (IGROV1 ovarian): 1560 nM
- GI50 (MDA-MB-435 melanoma): 1780 nM
- TGI (MDA-MB-435 melanoma): 3260 nM
- GI50 (OVCAR-8 ovarian): 3430 nM
- TGI (OVCAR-8 ovarian): 4920 nM
- GI50 (SNB-75 CNS): 775 nM
- TGI (SNB-75 CNS): 3010 nM
- GI50 (KM12 colon): 2050 nM
- TGI (KM12 colon): 4370 nM
- GI50 (SNB-19 CNS): 2090 nM
- TGI (SNB-19 CNS): 6560 nM
- GI50 (M14 melanoma): 1740 nM
- TGI (M14 melanoma): 3140 nM
- GI50 (HCC-2998 colon): 5290 nM
- GI50 (SN12C renal): 595 nM
- TGI (SN12C renal): 2240 nM
- GI50 (OVCAR-4 ovarian): 1180 nM
- TGI (OVCAR-4 ovarian): 2470 nM
- GI50 (CAKI-1 renal): 618 nM
- TGI (CAKI-1 renal): 2140 nM
- GI50 (HOP-62 NSCLC): 4210 nM
- TGI (HOP-62 NSCLC): 5840 nM
- GI50 (SK-MEL-28 melanoma): 1620 nM
- TGI (SK-MEL-28 melanoma): 2980 nM
- TGI (EKVX NSCLC): 3810 nM
- GI50 (A549 NSCLC): 3310 nM
- TGI (A549 NSCLC): 4860 nM
- GI50 (OVCAR-5 ovarian): 1660 nM
- TGI (OVCAR-5 ovarian): 5040 nM
- GI50 (NCI/ADR-RES ovarian): 1140 nM
- TGI (NCI/ADR-RES ovarian): 2370 nM
- GI50 (RXF 393 renal): 1010 nM
- TGI (RXF 393 renal): 3050 nM
- GI50 (SK-OV-3 ovarian): 619 nM
- TGI (SK-OV-3 ovarian): 5930 nM
- GI50 (UACC-62 melanoma): 1590 nM
- TGI (UACC-62 melanoma): 2960 nM
- GI50 (HCT-116 colon): 1570 nM
- TGI (HCT-116 colon): 2980 nM
- GI50 (CCRF-CEM leukemia): 1920 nM
- TGI (CCRF-CEM leukemia): 3370 nM
- GI50 (U251 glioblastoma): 4090 nM
- TGI (U251 glioblastoma): 5530 nM
- GI50 (UO-31 renal): 639 nM
- TGI (UO-31 renal): 2200 nM
- GI50 (786-0 renal): 784 nM
- TGI (786-0 renal): 2290 nM
- GI50 (UACC-257 melanoma): 1630 nM
- TGI (UACC-257 melanoma): 3080 nM
- TGI (ACHN renal): 1870 nM
- GI50 (SF-539 CNS): 1650 nM
- TGI (SF-539 CNS): 3030 nM
- GI50 (LOX IMVI melanoma): 2540 nM
- TGI (LOX IMVI melanoma): 5010 nM
- GI50 (SK-MEL-5 melanoma): 1600 nM
- TGI (SK-MEL-5 melanoma): 3670 nM
- GI50 (SR leukemia): 883 nM
- TGI (SR leukemia): 2210 nM
- GI50 (NCI-H226 lung): 3530 nM
- TGI (NCI-H226 lung): 5000 nM
- GI50 (MCF7 breast): 3170 nM
- TGI (MCF7 breast): 4960 nM
- GI50 (A498 renal): 471 nM
- TGI (A498 renal): 2190 nM
- GI50 (SF-268 CNS): 1680 nM
- TGI (SF-268 CNS): 4330 nM
- GI50 (MALME-3M melanoma): 1520 nM
- TGI (MALME-3M melanoma): 2860 nM
- GI50 (TK-10 renal): < 19.2 nM
- TGI (TK-10 renal): 3920 nM
- GI50 (NCI-H322M lung): < 22.1 nM
- TGI (NCI-H322M lung): 150 nM
- GI50 (HCT-15 colon): 1180 nM
- TGI (HCT-15 colon): 4170 nM
- GI50 (MDA-MB-468 breast): < 10 nM
- TGI (MDA-MB-468 breast): < 19.9 nM
- GI50 (DU-145 prostate): 395 nM
- TGI (DU-145 prostate): 2140 nM
- GI50 (NCI-H460 NSCLC): 1720 nM
- TGI (NCI-H460 NSCLC): 3410 nM
- GI50 (SW-620 colon): 1620 nM
- TGI (SW-620 colon): 3020 nM
- GI50 (OVCAR-3 ovarian): 586 nM
- TGI (OVCAR-3 ovarian): 2040 nM
- GI50 (BT-549 breast): 1010 nM
- TGI (BT-549 breast): 2430 nM
- GI50 (PC-3 prostate): 1670 nM
- TGI (PC-3 prostate): 3180 nM
- GI50 (NCI-H23 lung): 3170 nM
- TGI (NCI-H23 lung): 5330 nM
- TGI (T-47D breast): 3920 nM
- GI50 (HS 578T breast): 951 nM
- TGI (HS 578T breast): 2810 nM
- GI50 (HOP-92 NSCLC): 1160 nM
- TGI (HOP-92 NSCLC): 2400 nM
- GI50 (MDA-MB-231 breast): 1230 nM
- TGI (MDA-MB-231 breast): 2490 nM
- GI50 (MOLT-4 leukemia): 803 nM
- TGI (MOLT-4 leukemia): 2190 nM
- GI50 (COLO 205 colon): 4040 nM
- TGI (COLO 205 colon): 5480 nM
